{"source": "patent US20190021995A1", "about": "“FORMULATION FOR TREATMENT OF PERIPHERAL JOINTS, SPINAL JOINTS AND/OR EXTRACELLULAR MATRIX ELEMENTS OF CONNECTIVE TISSUE, METHOD OF MANUFACTURE AND USES” (priority 2015, published 2019)", "assay": "Studies of glucosamine salts delivered by the transdermal delivery system", "excerpt": "In accordance with the present invention, the above-indicated studies have shown that the transdermal delivery system described above can be used for delivering, for example, any glucosamine salt such as glucosamine hydrochloride, glucosamine sulfate, glucosamine sulfate stabilized with sodium chloride or potassium chloride."}
{"molecule": "N[C@H]1C(O)O[C@H](CO)[C@@H](O)[C@@H]1O.O=S(=O)(O)O.[Cl-].[K+]", "note": "(stereo partly shown) [glucosamine sulfate potassium chloride]", "values": [{"measurement": "bioavailability of glucosamine in blood plasma and synovial fluid among glucosamine salts", "result": "maximal bioavailability"}]}
